Measurements published in patent US7498343B2, “Mycobacterial inhibitors” (priority 2002, dated 2009).
Values after ≈ are worked out from the molar mass of the structure shown. Read-outs that look alike come from different tables or passages of the source.

Tests used:
[1] = test system: Mycobacterium tuberculosis (strain H37RV); test: In-vitro method for testing compounds against M. tuberculosis (resazurin growth inhibition, MIC); assay type: cell-based; details: MIC data representing IC90's, 7 days incubation, resazurin fluorescence
M. Smegmatis ATCC607 = test: In-vitro method for testing compounds for anti-bacterial activity against strain M. smegmatis ATCC607 (Alamar Blue growth inhibition); assay type: cell-based; details: pIC50 = -logIC50, IC50 in M, 50% inhibitory concentration for bacterial growth, 48 hours incubation; for IC50: Mycolicibacterium smegmatis, ATCC607, 48 h
Method: C.2. In-vitro Method for Testing Compounds for Anti-bacterial Activity Against Strain M. Smegmatis ATCC607. […] Subsequently, stock solutions (7.8×final test concentration) of compounds were added in 45 μl volumes to a series of duplicate wells in column 2 so as to allow evaluation of their effects on bacterial growth. Serial five-fold dilutions (45 μl in 180 μl) were made directly in the microtiter plates from column 2 to 11 using a customised robot system (Zymark Corp., Hopkinton, Mass.). Pipette tips were changed after every 3 dilutions to minimize pipetting errors with high hydrophobic compounds. Untreated control samples with (column 1) and without (column 12) inoculum were included in each microtiter plate. Approximately 250 CFU per well of bacteria inoculum, in a volume of 100 μl in 2.8×Mueller-Hinton broth medium, was added to the rows […]. The same volume of broth medium without inoculum was added to column 12 in row A to H. The cultures were incubated at 37° C. for 48 hours in a humidified 5% CO2 atmosphere (incubator with open air valve and continuous ventilation). At the end of incubation, two days after inoculation, the bacterial growth was quantitated fluorometrically. Therefore Alamar Blue (10×) was added to all wells in a volume of 20 μl and plates were incubated for another 2 hours at […] The fluorescence was read in a computer-controlled fluorometer (Cytofluor, Biosearch) at an excitation wavelength of 530 nm and an emission wavelength of 590 nm (gain 30). The % growth inhibition achieved by the compounds was calculated according to standard methods.

[2] = Mycobacterium tuberculosis, H37RV, 168 h, read-out: MIC

Molecule `COc1nc2ccc(Br)cc2cc1C(c1ccccc1)C(O)(CCCN1CCOCC1)c1ccc2ccccc2c1` (single isomer, unassigned) [Compound 198] has an MIC [1] of 61.16 microgram/ml and a pIC50 (M. Smegmatis ATCC607; M. smegmatis ATCC607) of 4.3.
Molecule `CCN(C)CCC(O)(c1cccc2ccccc12)C(c1ccccc1)c1cc2cc(Br)ccc2nc1OC` (stereo not shown) [Compound 148] has an MIC [1] of 56.96 microgram/ml and a pIC50 (M. Smegmatis ATCC607; M. smegmatis ATCC607) of 4.9.
Work on `COc1nc2ccc(-c3ccccc3)cc2cc1C(c1ccccc1)C(O)(CCN(C)C)c1cccc2ccccc12` (racemic) [Compound 85] yielded an MIC [1] of 8.76 microgram/ml and a pIC50 (M. Smegmatis ATCC607; M. smegmatis ATCC607) of 5.9.
In the case of `CSc1nc2ccc(Br)cc2cc1C(c1ccccc1)C(O)(CCN(C)C)c1cccc2ccccc12` (racemic) [Compound 88], the MIC [1] is reported as 45.40 microgram/ml and the pIC50 (M. Smegmatis ATCC607; M. smegmatis ATCC607) is reported as 6.8.
For `COc1nc2ccc(Br)cc2cc1C(c1ccccc1)C(O)(CC[N+](C)(C)C)c1ccccc1.[I-]` (racemic) [Compound 57], the MIC [1] was 25.77 microgram/ml and the pIC50 (M. Smegmatis ATCC607; M. smegmatis ATCC607) was 5.4.
With `COc1nc2ccc(Br)cc2cc1C(c1ccccc1)C(O)(CN(C)C)c1ccccc1` (single isomer, unassigned) [Compound 61] the MIC [1] was 39.04 microgram/ml and the pIC50 (M. Smegmatis ATCC607; M. smegmatis ATCC607) was 4.5.
In the case of `COc1nc2ccc(Br)cc2cc1C(c1ccccc1)C(O)(CCN(C)C)c1cc(Br)cc2ccccc12` (single isomer, unassigned) [Compound 143], the MIC [1] is reported as 50.39 microgram/ml and the pIC50 (M. Smegmatis ATCC607; M. smegmatis ATCC607) is reported as 6.9.
`CCOc1nc2ccc(Br)cc2cc1C(c1ccccc1)C(O)(CCN(C)C)c1ccccc1` (stereo not shown) [Compound 6] gave an MIC [1] of 8.23 microgram/ml and a pIC50 (M. Smegmatis ATCC607; M. smegmatis ATCC607) of 5.8.
`COc1nc2ccc(-c3ccc(CO)o3)cc2cc1C(c1ccccc1)C(O)(CCN(C)C)c1cccc2ccccc12` (single isomer, unassigned) [Compound 212] was tested, and the MIC [1] was 9.08 microgram/ml and the pIC50 (M. Smegmatis ATCC607; M. smegmatis ATCC607) was 6.0.
Work on `CN(C)CCC(O)(c1cccc2ccccc12)C(c1ccccc1)c1cc2cc(Br)ccc2nc1N1CCOCC1` (racemic) [Compound 79] yielded an MIC [1] of 2.43 microgram/ml and a pIC50 (M. Smegmatis ATCC607; M. smegmatis ATCC607) of 7.2.
For `COc1nc2ccc(Br)cc2cc1C(c1ccccc1)C(O)(CCN1CCOCC1)c1ccccc1` (racemic) [Compound 124], the MIC [1] was 54.75 microgram/ml and the pIC50 (M. Smegmatis ATCC607; M. smegmatis ATCC607) was 5.3.
In the case of `COc1nc2ccc(C)cc2cc1C(c1ccccc1)C(O)(CCN(C)C)c1ccccc1` (single isomer, unassigned) [Compound 23], the MIC [1] is reported as 8.79 microgram/ml and the pIC50 (M. Smegmatis ATCC607; M. smegmatis ATCC607) is reported as 6.4.
In the case of `COc1nc2cc(C)c(Br)cc2cc1C(c1ccccc1)C(O)(CCN(C)C)c1cc(F)cc(F)c1` (single isomer, unassigned) [Compound 227], the MIC [1] is reported as 1.76 microgram/ml and the pIC50 (M. Smegmatis ATCC607; M. smegmatis ATCC607) is reported as 7.5.
`COc1nc2ccc(Br)cc2cc1C(c1ccc(Cl)cc1)C(O)(CCN(C)C)c1cccc2ccccc12` (racemic) [Compound 73] showed an MIC [1] of 23.49 microgram/ml and a pIC50 (M. Smegmatis ATCC607; M. smegmatis ATCC607) of 8.0.
`COc1nc2ccc(Br)cc2cc1C(c1ccc(Cl)cc1)C(O)(CCN(C)C)c1cccc2ccccc12` (racemic) [Compound 74] gave an MIC [1] of 59.00 microgram/ml and a pIC50 (M. Smegmatis ATCC607; M. smegmatis ATCC607) of 6.5.
`COc1nc2ccc(Br)cc2cc1C(c1ccccc1)C(O)(CCN(C)C)c1cccc2c1CCCC2` (single isomer, unassigned) [Compound 131] was tested, and the MIC [1] was 44.45 microgram/ml and the pIC50 (M. Smegmatis ATCC607; M. smegmatis ATCC607) was 6.9.
In the case of `COc1nc2ccc(-c3ccco3)cc2cc1C(c1ccccc1)C(O)(CCN(C)C)c1cccc(F)c1` (single isomer, unassigned) [Compound 174], the MIC [1] is reported as 0.06 microgram/ml and the pIC50 (M. Smegmatis ATCC607; M. smegmatis ATCC607) is reported as 6.8.
`COc1nc2ccc(Br)cc2cc1C(c1ccccc1)C(O)(CCN(C)C)c1ccc(F)cc1` (single isomer, unassigned) [Compound 181] was tested, and the MIC [1] was 8.30 microgram/ml and the pIC50 (M. Smegmatis ATCC607; M. smegmatis ATCC607) was 6.9.
`COc1nc2ccc(-c3cc4ccccc4s3)cc2cc1C(c1ccccc1)C(O)(CCN(C)C)c1cccc(F)c1` (single isomer, unassigned) [Compound 203] showed an MIC [1] of 1.15 microgram/ml and a pIC50 (M. Smegmatis ATCC607; M. smegmatis ATCC607) of 8.0.
`COc1nc2ccc(C#N)cc2cc1C(c1ccccc1)C(O)(CCN(C)C)c1cccc(F)c1` (single isomer, unassigned) [Compound 180] was tested, and the MIC [1] was 3.73 microgram/ml and the pIC50 (M. Smegmatis ATCC607; M. smegmatis ATCC607) was 6.6.
For `COc1nc2ccc(-c3cc4ccccc4s3)cc2cc1C(c1ccccc1)C(O)(CCN(C)C)c1cccc(F)c1` (single isomer, unassigned) [Compound 204], the MIC [1] was 9.14 microgram/ml and the pIC50 (M. Smegmatis ATCC607; M. smegmatis ATCC607) was 5.4.
`CCN(CC)CCCC(O)(c1ccc2ccccc2c1)C(c1ccccc1)c1cc2cc(Br)ccc2nc1OC` (single isomer, unassigned) [Compound 193] gave an MIC [1] of 9.47 microgram/ml and a pIC50 (M. Smegmatis ATCC607; M. smegmatis ATCC607) of 5.6.
`COc1nc2cccc(Br)c2cc1C(c1ccccc1)C(O)(CCN(C)C)c1cccc2ccccc12` (single isomer, unassigned) [Compound 224] was tested, and the MIC [1] was 44.13 microgram/ml and the pIC50 (M. Smegmatis ATCC607; M. smegmatis ATCC607) was 4.9.
`COc1nc2ccc(Br)cc2cc1C(c1ccccc1)C(O)(CCN1CCOCC1)c1ccc2cc(Br)ccc2c1` (single isomer, unassigned) [Compound 178] showed an MIC [1] of 67.65 microgram/ml and a pIC50 (M. Smegmatis ATCC607; M. smegmatis ATCC607) of 4.5.
`COc1nc2ccc(Br)cc2cc1C(c1ccccc1)C(O)(CCN(C)C)c1cccc(F)c1` (stereo not shown) [Compound 38] was tested, and the MIC [1] was 8.30 microgram/ml and the pIC50 (M. Smegmatis ATCC607; M. smegmatis ATCC607) was 7.9.
For `COc1nc2ccc(Br)cc2cc1C(c1ccccc1)C(O)(CCN(C)C)c1cc(F)cc(F)c1` (stereo not shown) [Compound 115], the MIC [1] was 0.07 microgram/ml and the pIC50 (M. Smegmatis ATCC607; M. smegmatis ATCC607) was 8.6.
With `COc1nc2ccc(Br)cc2cc1C(c1ccccc1)C(O)(CCCN(C)C)c1ccccc1` (single isomer, unassigned) [Compound 63] the MIC [1] was 1.64 microgram/ml and the pIC50 (M. Smegmatis ATCC607; M. smegmatis ATCC607) was 6.7.
With `COc1nc2ccc(Br)cc2cc1C(c1ccccc1)C(O)(CCN1CCCC1)c1ccc2ccccc2c1` (single isomer, unassigned) [Compound 144] the MIC [1] was 52.46 microgram/ml and the pIC50 (M. Smegmatis ATCC607; M. smegmatis ATCC607) was 7.0.
`COc1nc2ccc(Br)cc2cc1[C@@H](c1ccccc1)[C@@](O)(CCN(C)C)c1cccc2ccccc12` [Compound 12, (1R,2S) 1-(6-bromo-2-methoxy-quinolin-3-yl)-4-dimethylamino-2-naphthalen-1-yl-1-phenyl-butan-2-ol] was tested, and the MIC [1, 2] was 0.07 µg/mL (≈ 0.126 µM) and the IC50 (M. Smegmatis ATCC607; read-out: pIC50, M. smegmatis ATCC607 (converted)) was 2 nM.
With `COc1nc2ccc(Cl)cc2cc1C(c1ccccc1)C(O)(CCN(C)C)c1cccc2ccccc12` (single isomer, unassigned) [Compound 119] the MIC [1] was 10.20 microgram/ml and the pIC50 (M. Smegmatis ATCC607; M. smegmatis ATCC607) was 7.8.
In the case of `COc1nc2ccc(Br)cc2cc1C(c1ccccc1)C(O)(CCn1cncn1)c1ccccc1` (racemic) [Compound 53], the MIC [1] is reported as 52.94 microgram/ml and the pIC50 (M. Smegmatis ATCC607; M. smegmatis ATCC607) is reported as 5.1.
With `CNCCC(O)(c1cccc2ccccc12)C(c1ccccc1)c1cc2cc(Br)ccc2nc1OC` (stereo not shown) [Compound 56] the MIC [1, 2] was 43 µg/mL (≈ 79.4 µM) and the IC50 (M. Smegmatis ATCC607; M. smegmatis ATCC607, read-out: pIC50 (converted)) was 63.1 nM.
With `COc1nc2ccc(Br)cc2cc1C(c1ccccc1)C(O)(CCN1CCN(C)CC1)c1cccc2ccccc12` (single isomer, unassigned) [Compound 156] the MIC [1] was 9.68 microgram/ml and the pIC50 (M. Smegmatis ATCC607; M. smegmatis ATCC607) was 5.3.
`COc1nc2ccc(Br)cc2cc1C(c1ccccc1)C(O)(CCN1CCN(C)CC1)c1cc(Br)cc2ccccc12` (single isomer, unassigned) [Compound 152] showed an MIC [1] of 10.93 microgram/ml and a pIC50 (M. Smegmatis ATCC607; M. smegmatis ATCC607) of 5.8.
In the case of `COc1nc2ccc(F)cc2cc1C(c1ccccc1)C(O)(CCN(C)C)c1ccccc1` (single isomer, unassigned) [Compound 28], the MIC [1] is reported as 1.41 microgram/ml and the pIC50 (M. Smegmatis ATCC607; M. smegmatis ATCC607) is reported as 7.3.
Molecule `COc1nc2ccc(Br)cc2cc1C(c1ccccc1)C(O)(CCN(C)C)c1cccs1` (single isomer, unassigned) [Compound 20] has an MIC [1] of 40.63 microgram/ml and a pIC50 (M. Smegmatis ATCC607; M. smegmatis ATCC607) of 5.9.
In the case of `COc1nc2c(C)cc(Br)cc2cc1C(c1ccccc1)C(O)(CCN(C)C)c1cccc(F)c1` (single isomer, unassigned) [Compound 220], the MIC [1] is reported as 8.52 microgram/ml and the pIC50 (M. Smegmatis ATCC607; M. smegmatis ATCC607) is reported as 5.3.
`COc1nc2ccc(Br)cc2cc1C(c1ccccc1)C(O)(CCN(C)C)c1c(F)cccc1F` (single isomer, unassigned) [Compound 167] gave an MIC [1] of 43.01 microgram/ml and a pIC50 (M. Smegmatis ATCC607; M. smegmatis ATCC607) of 5.5.
In the case of `COc1nc2ccc(Br)cc2cc1C(c1ccccc1)C(O)(CCN)c1ccccc1` (stereo not shown) [Compound 44], the MIC [1] is reported as 6.01 microgram/ml and the pIC50 (M. Smegmatis ATCC607; M. smegmatis ATCC607) is reported as 5.9.
For `COc1nc2ccc(Br)cc2cc1C(c1ccccc1)C(O)(CCN1CCOCC1)c1ccccc1` (racemic) [Compound 123], the MIC [1] was 54.75 microgram/ml and the pIC50 (M. Smegmatis ATCC607; M. smegmatis ATCC607) was 4.2.
Work on `COc1nc2cc(Br)ccc2cc1C(c1ccccc1)C(O)(CCN(C)C)c1cccc2ccccc12` (single isomer, unassigned) [Compound 218] yielded an MIC [1] of 8.80 microgram/ml and a pIC50 (M. Smegmatis ATCC607; M. smegmatis ATCC607) of 6.6.
